Patent US20230146795A1, “ENHANCEMENT OF ANTI-TUMOR ACTIVITY OF SHP2 INHIBITOR PYRIMIDINONE IN COMBINATION WITH NOVEL CANCER MEDICINES IN CANCERS” (TAIHO PHARMACEUTICAL CO., LTD., priority 2020, published 2023)

Experiments:
[1] = tested on: NCI-H358; test: Anti-proliferation assay (CellTiter-Glo 2.0), combination index, NCI-H358; assay type: cell-based
In short: (§1)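 Cells were seeded at 500 cells/well in medium with 10% FBS and exposed to agents at 8 concentrations including 0 nM, for 3 days at 37° C under 5% CO2. Survival was read by CellTiter-Glo 2.0 luminescence, and combination index was determined at each combined concentration.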

[2] = tested on: MV-4-11; test: Anti-proliferation assay (CellTiter-Glo 2.0), combination index, MV-4-11; assay type: cell-based
In short: (§2)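 Cells were seeded at 500/well in 10% FBS medium and grown 24 h at 37°C before dosing. Compound 1 (10 concentrations) was combined with a second antitumor agent (8 concentrations including 0 nM) for 3 days. Viability was read by CellTiter-Glo 2.0 luminescence, and a combination index was calculated at each concentration pair.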

[3] = tested on: NCI-H23; test: Anti-proliferation assay (CellTiter-Glo 2.0), combination index, NCI-H23; assay type: cell-based
Method: Cell lines were obtained from ATCC or Health Science Research Resources Bank.
Each cell lines were collected by ordinary method, then suspended in indicated medium containing 10% fetal bovine serum in table 3. The number of cells seeded per well was set to 500 cells/20 μL. […] The concentration of each anti-cancer reagents set to 8 concentrations including 0 nM. After adding the medicine to the cells, the cells were further incubated at 37° C. for 3 days under 5% CO2. Cell survival rates were calculated by adding 20 μL of CellTiter-Glo(registered trademark) 2. 0 (Promega) solution to each well, incubating the cells at room temperature for 10 minutes, and then measuring the chemiluminescence intensity of each well using a plate reader (ARVO).
A combination index (CI) value at each combined concentration of the medicines was determined.

[4] = tested on: MKN45; test: Anti-proliferation assay (CellTiter-Glo 2.0), combination index, MKN45; assay type: cell-based
In short: as §1

[5] = tested on: RMG-I; test: Anti-proliferation assay (CellTiter-Glo 2.0), combination index, RMG-I; assay type: cell-based
In short: as §2

[6] = target: T1, SHP2 (Homo sapiens, UniProt Q06124); test: SHP2 biochemical assay (DiFMUP conversion); conditions: 10 pM SHP2, 0.25 μM pIRS1 peptide, 50 μM DiFMUP
T1 sequence (Q06124 1-593): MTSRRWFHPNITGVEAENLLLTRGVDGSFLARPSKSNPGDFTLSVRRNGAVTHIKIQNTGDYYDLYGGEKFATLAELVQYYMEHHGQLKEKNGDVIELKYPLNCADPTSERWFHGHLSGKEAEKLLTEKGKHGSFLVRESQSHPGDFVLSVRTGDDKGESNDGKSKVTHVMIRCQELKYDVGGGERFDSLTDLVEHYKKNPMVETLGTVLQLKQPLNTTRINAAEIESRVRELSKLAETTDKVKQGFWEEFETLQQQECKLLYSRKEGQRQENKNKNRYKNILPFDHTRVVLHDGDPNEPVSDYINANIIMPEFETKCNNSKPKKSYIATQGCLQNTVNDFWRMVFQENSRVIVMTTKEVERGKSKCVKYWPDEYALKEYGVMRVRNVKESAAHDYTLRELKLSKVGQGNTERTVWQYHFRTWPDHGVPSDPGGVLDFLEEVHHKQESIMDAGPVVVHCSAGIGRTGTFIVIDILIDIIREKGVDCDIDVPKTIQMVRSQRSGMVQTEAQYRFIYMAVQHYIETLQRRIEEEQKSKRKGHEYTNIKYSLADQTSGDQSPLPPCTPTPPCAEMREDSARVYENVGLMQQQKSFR
Method: (1) SHP2 Biochemical Assay SHP2 Activity was Monitored by Measuring the Conversion of the Surrogate Substrate 6,8-Difluoromethylumbelliferyl Phosphate (DiEMUP) to the Fluorescent Product, 6,8-Difluoromethylumbelliferone (DiFMU).
SHP2 was pre-incubated with test compounds and the activating peptide pIRS1 (H2N-LN(pY) IDLDLV-(PEG) 8-LST(pY)ASINFQK-amide) for 30 min, prior to addition of the 6,8-difluoromethylumbelliferyl phosphate (DiEMUP), (Thermo Fisher D6567). Final assay concentrations were 10 pM SHP2, 0.25 μM pIRS1 peptide, 50 μM DiFMUP, 25 mM Bis-Tris propane, pH 7.0, 150 mM NaCl, 0.05% (v/v) Tween-20, 0.5 mM TCEP and 5% (v/v) DMSO. Rates of reaction were then measured over 30 min by monitoring fluorescence on a BMG Pherastar reader at excitation 360 nm/emission 450 nm. IC50 values were calculated in singlicate from the normalized dose-response plots using four parameter logistic curve fit. The Experiment for each compound was carried out in one time or multiple times, and the IC50 values were shown as a single value (for a compound measured in a single experiment) or an average value (for a compound measured in multiple experiments).

[7] = Compound 1 123 + combination drug 370 nmol/L (1:3)
[8] = Compound 1 370 + combination drug 1110 nmol/L (1:3)
[9] = Compound 1 1110 + combination drug 3330 nmol/L (1:3)
[10] = Compound 1 3330 + combination drug 10000 nmol/L (1:3)
[11] = Compound 1 1.52 + combination drug 123 nmol/L (1:81)
[12] = Compound 1 4.57 + combination drug 370 nmol/L (1:81)
[13] = Compound 1 13.7 + combination drug 1110 nmol/L (1:81)
[14] = Compound 1 41.2 + combination drug 3330 nmol/L (1:81)
[15] = Compound 1 123 + combination drug 10000 nmol/L (1:81)
[16] = Compound 1 41.2 + combination drug 123 nmol/L (1:3)
[17] = Compound 1 1.52 + combination drug 41.2 nmol/L (1:27)
[18] = Compound 1 4.57 + combination drug 123 nmol/L (1:27)
[19] = Compound 1 13.7 + combination drug 370 nmol/L (1:27)
[20] = Compound 1 41.2 + combination drug 1110 nmol/L (1:27)
[21] = Compound 1 123 + combination drug 3330 nmol/L (1:27)
[22] = Compound 1 370 + combination drug 10000 nmol/L (1:27)
[23] = Compound 1 13.7 nmol/L + Abemaciclib 41.2 nmol/L, molar ratio 1:3
[24] = Compound 1 41.2 nmol/L + Abemaciclib 123 nmol/L, molar ratio 1:3
[25] = Compound 1 123 nmol/L + Abemaciclib 370 nmol/L, molar ratio 1:3
[26] = Compound 1 370 nmol/L + Abemaciclib 1110 nmol/L, molar ratio 1:3
[27] = Compound 1 1110 nmol/L + Abemaciclib 3330 nmol/L, molar ratio 1:3
[28] = Compound 1 3330 nmol/L + Abemaciclib 10000 nmol/L, molar ratio 1:3
[29] = Compound 1 4.57 nmol/L + Abemaciclib 123 nmol/L, molar ratio 1:27
[30] = Compound 1 13.7 nmol/L + Abemaciclib 370 nmol/L, molar ratio 1:27
[31] = Compound 1 41.2 nmol/L + Abemaciclib 1110 nmol/L, molar ratio 1:27
[32] = Compound 1 123 nmol/L + Abemaciclib 3330 nmol/L, molar ratio 1:27
[33] = combination effect, Compound 1 + Abemaciclib, molar ratio 1:27
[34] = Compound 1 1.52 nmol/L + Abemaciclib 41.2 nmol/L, molar ratio 1:27

## NC1(c2ccc(-c3nc4ccn5c(=O)[nH]nc5c4cc3-c3ccccc3)cc2)CCC1 [MK-2206, 8-[4-(1-aminocyclobutyl)phenyl]-9-phenyl-1,2,4-triazolo[3,4-f][1,6]naphthyridin-3(2H)-one]
[1]; [7]
  CI: 0.477
  Fa: 0.2532
[1]; [8]
  CI: 0.204
  Fa: 0.4838
[1]; [9]
  CI: 0.301
  Fa: 0.5761
[1]; [10]
  CI: 0.213
  Fa: 0.7446
[2]; [11]
  CI: 0.315
  Fa: 0.2639
[2]; [12]
  CI: 0.520
  Fa: 0.3899
[2]; [13]
  CI: 0.446
  Fa: 0.6851
[2]; [14]
  CI: 0.318
  Fa: 0.9006
[2]; [15]
  CI: 0.137
  Fa: 0.9846
[3]; [16]
  CI: 0.783
  Fa: 0.1015
[3]; [7]
  CI: 0.265
  Fa: 0.2110
[3]; [8]
  CI: 0.232
  Fa: 0.3486
[3]; [9]
  CI: 0.295
  Fa: 0.5074
[3]; [10]
  CI: 0.340
  Fa: 0.7061
[4]; [17]
  CI: 0.315
  Fa: 0.1506
[4]; [18]
  CI: 0.564
  Fa: 0.1981
[4]; [19]
  CI: 0.408
  Fa: 0.3872
[4]; [20]
  CI: 0.383
  Fa: 0.5869
[4]; [21]
  CI: 0.420
  Fa: 0.7489
[4]; [22]
  CI: 0.608
  Fa: 0.8398
[4]; Compound 1:combination drug molar ratio 1:27
  Description (combinatory effect by CI): Synergy (0.3-0.7)
[5]; [11]
  CI: 0.724
  Fa: 0.1204
[5]; [12]
  CI: 0.398
  Fa: 0.2545
[5]; [13]
  CI: 0.314
  Fa: 0.4133
[5]; [14]
  CI: 0.320
  Fa: 0.5593
[5]; [15]
  CI: 0.353
  Fa: 0.6868
[5]; Compound 1:combination drug molar ratio 1:81
  Description (combinatory effect by CI): Synergy (0.3-0.7)

## Cn1nc2ccc(-c3c[nH]c4nc(N5[C@H]6CC[C@@H]5[C@H](N)C6)n(C)c(=O)c34)c(F)c2c1Cl [Compound 6, 2-((1R,2R,4S)-2-amino-7-azabicyclo[2.2.1]heptan-7-yl)-5-(3-chloro-4-fluoro-2-methyl-2H-indazol-5-yl)-3-methyl-3,7-dihydro-4H-pyrrolo[2,3-d]pyrimidin-4-one]
[6]
  IC50: 2.8 nM

## CCn1cc2c(Cl)c(-c3c[nH]c4nc(N5[C@H]6CC[C@@H]5[C@H](N)C6)n(C)c(=O)c34)ccc2n1 [Compound 7, 2-((1R,2R,4S)-2-amino-7-azabicyclo[2.2.1]heptan-7-yl)-5-(4-chloro-2-ethyl-2H-indazol-5-yl)-3-methyl-3,7-dihydro-4H-pyrrolo[2,3-d]pyrimidin-4-one]
[6]
  IC50: 3.3 nM

## Cn1nc2ccc(-c3c[nH]c4nc(N5C[C@H]6CC[C@@H]5[C@@H]6N)n(C)c(=O)c34)c(Cl)c2c1Cl [Compound 5, 2-((1R,4R,7R)-7-amino-2-azabicyclo[2.2.1]heptan-2-yl)-5-(3,4-dichloro-2-methyl-2H-indazol-5-yl)-3-methyl-3,7-dihydro-4H-pyrrolo[2,3-d]pyrimidin-4-one]
[6]
  IC50: 1.5 nM

## CCN1CCN(Cc2ccc(Nc3ncc(F)c(-c4cc(F)c5nc(C)n(C(C)C)c5c4)n3)nc2)CC1 [Abemaciclib]
[1]; [23]
  CI: 0.638
  Fa: 0.1857
[1]; [24]
  CI: 0.337
  Fa: 0.3529
[1]; [25]
  CI: 0.187
  Fa: 0.5769
[1]; [26]
  CI: 0.189
  Fa: 0.7183
[1]; [27]
  CI: 0.455
  Fa: 0.7441
[1]; [28]
  CI: 0.025
  Fa: 0.9724
[2]; [29]
  CI: 0.592
  Fa: 0.5416
[2]; [30]
  CI: 0.494
  Fa: 0.8419
[2]; [31]
  CI: 0.654
  Fa: 0.9407
[2]; [32]
  CI: 0.951
  Fa: 0.9781
[2]; [33]
  Description: Synergy (0.3-0.7)
[3]; [26]
  CI: 0.292
  Fa: 0.3181
[3]; [27]
  CI: 0.420
  Fa: 0.5212
[3]; [28]
  CI: 0.031
  Fa: 0.9964
[4]; [29]
  CI: 0.665
  Fa: 0.1096
[4]; [31]
  CI: 0.647
  Fa: 0.5496
[4]; [32]
  CI: 0.698
  Fa: 0.7785
[4]; [33]
  Description: Synergy (0.3-0.7)
[5]; [34]
  CI: 0.724
  Fa: 0.1493
[5]; [29]
  CI: 0.606
  Fa: 0.2479
[5]; [30]
  CI: 0.357
  Fa: 0.4570
[5]; [31]
  CI: 0.455
  Fa: 0.5937
[5]; [32]
  CI: 0.830
  Fa: 0.6711
[5]; [33]
  Description: Synergy (0.3-0.7)
